Assay results as given in patent publication US6870044B2, “Inflammation inducible hybrid promoters, vectors comprising them and uses thereof” (Universite Pierre et Marie Curie, priority 2000, dated 2005).
Several values for one entry are separate records, joined by “and”; a condition that tells them apart may be missing. Equal values may be shown once.

Legend:
[1] = form not soluble in water, dose 5 to 50 mg/kg, for example 30 mg/kg; cited from earlier work
[2] = test system: construct (DR)2 21-(−247/+20) sPLA2-CAT; test: CAT reporter, hybrid promoter (DR1)2 21-(−247/+20) sPLA2-CAT in transfected chondrocytes; format: cell-based, rabbit; settings: for induction of the hybrid promoter, single inducer: PGJ2 10 μM, IL-1 10 ng/ml; for activation of the construct (DR1)2 21-(−247/+20)-CAT: 10^−4 M
Procedure: (§1) The hind and forelegs of 3-week-old prepubescent rabbits (Fauve de Bourgogne) were dissected and chopped up under sterile conditions. The cartilage is removed with a scalpel and then the chondrocytes are dissociated by means of proteolytic enzymes: hyaluronidase 0.05% for 15 minutes, trypsine 0.25% for 30 minutes and collagenase 0.2% for 90 minutes. Finally, the HAM's F12 medium is added for 60 minutes. The suspension of chondrocytes is cultured in dishes 6 cm in diameter (150,000 cells per dish) in the presence of HAM's F12 medium containing 10% fetal calf serum.
(§2) When these cells reach preconfluence (6 to 7 days), they are transfected with the various constructs using the calcium phosphate method.
(§3) The CAT activity is measured according to the double liquid phase technique according to Desbois et al. (1992). The β-galactosidase activity is measured with the aim of normalizing the variations in the transfection efficiency.
(§4) The fragment −247/+20 of the promoter of sPLA2 IIA (SEQ ID NO:5) was subcloned upstream of the CAT reporter vector for the plasmid PUC-SH-CAT. Upstream of this promoter, the different PPRE sequences cited above (SEQ ID NO: 1-4) were inserted.
(§5) The rabbit chondrocytes were then transfected with the CAT constructs containing the different arrangements of PPRE (DR1) placed upstream of the minimal promoter of sPLA2-IIA. 15 deoxy Δ^12-14 PGJ2 (10 μM) (activator of PPARγ) or Wy-14643 (200 μM) (activator of PPARα) were then added to the culture medium for 24 hours.
(§6) Rabbit chondrocytes were then transfected, either with the minimal promoter of sPLA2-IIA, or with the sequence (DR1)2 21 placed upstream of the latter (hybrid promoter). PGJ2 (10 μM) and/or IL-1 (10 ng/ml) are added to the culture medium.

[3] = test system: minimal promoter (−247/+20) of sPLA2-IIA; test: CAT reporter, minimal promoter (−247/+20) of sPLA2-IIA in transfected chondrocytes; format: cell-based, rabbit; settings: for activation of the minimal promoter (−247/+20) of sPLA2-IIA: PGJ2 10 μM or Wy-14643 200 μM, 24 hours
Procedure: as §1, §2, §3, §4, §5, §6

[4] = test system: PPARα/RXR heterodimer (Cos-1 extracts enriched with PPARα and RXR); test: Gel retardation, cooperative binding of PPARα/RXR to radiolabeled PPRE sequences; settings: PPARα/RXR 3/1, bands counted on a beta scintillation counter
Procedure: (§7) The Cos-1 cells (transformed monkey kidney fibroblasts) are transfected according to the abovementioned calcium phosphate technique using 20 μg of vectors for expression of PPARγ, PPARα or RXR. Non-transfected Cos-1 cells will serve as control. 48 hours after the transfection, the cells are incubated with a buffer containing KCl (0.45 M), Tris-HCl (20 mM, pH=7.5) and 10% glycerol. They are detached by scraping and then disrupted by cooling to −80° C. and thawing at 37° C. These cells are then centrifuged at 15,000 rpm, for 10 minutes at 4° C. The supernatant is then frozen at −80° C. and used for the gel retardation experiments.
(§8) The sequences DR1, (DR1)2 17, (DR1)2 21, and (DR1)2 31 are radiolabeled by means of the Klenow fragment of DNA polymerase using [α-^32P]dCTP. One hundred thousand cpm (0.4 ng) of the radiolabeled probes are incubated, for 30 minutes at 4° C., with increasing quantities of Cos-1 extracts enriched with PPAR and RXR (as indicated in the legend to the figures) and with a specific binding buffer (KCl 100 mM, Hepes 40 mM, pH 7.5, NP40 0.1%, ZnCl2 0.5 mM, PEG 8%). The mixture is then deposited on an acrylamide/bisacrylamide gel (5%, TBE 0.25×) and run for 2 hours 30 min at 200 volts. The gel is then dried and autoradiographed.
With the aim of studying the cooperativity of the binding of PPAR/RXR to these different sequences, gel retardation experiments placing increasing quantities of Cos-1 extracts enriched with PPAR and RXR (1 μl to 10 μl), followed by quantification of the radioactivity obtained, were carried out. […]
Similar experiments were carried out with PPARα. […] Gel retardation experiments using the four radiolabeled sequences and increasing quantities of Cos-1 extracts enriched with PPARα and RXR (rapport3/1) were carried out. The bands corresponding to the dimeric (D) or tetrameric (T) forms or the free probe (P) were cut out of the gel and then quantified by counting on a beta scintillation counter (FIG. 4). […]

[5] = test system: PPARγ and RXR proteins prepared in Cos-1 cells; test: Gel retardation, cooperative binding of PPARγ/RXR to radiolabeled PPRE sequences; settings: for cooperativity ratio KdII/KdIV (R): PPARγ/RXR ratio 3:1, Cos-1 extracts 1 μl to 10 μl, Phosphorimager quantification
Procedure: as §7, §8
In order to verify the functional nature and the efficiency of the above PPRE regions, gel retardation experiments were carried out consisting in studying the binding between one of the four sequences above, radiolabeled beforehand, in the presence of increasing quantities (5 and 10 μl) of PPARγ and RXR proteins prepared in Cos-1 cells (PPARγ/RXR ratio=3:1).
With the aim of studying the cooperativity of the binding of PPAR/RXR to these different sequences, gel retardation experiments placing increasing quantities of Cos-1 extracts enriched with PPAR and RXR (1 μl to 10 μl), followed by quantification of the radioactivity obtained, were carried out. The formation of the first PPAR/RXR dimer is characterized by the dissociation constant KdII, that of the double dimer, or tetramer, is characterized by the dissociation constant KdIV. The KdII/KdIV ratio (R) is the reflection of the cooperativity of the binding if it is greater than 1.
The various dimeric and tetrameric complexes and the free probe were quantified by means of a Phosphorimager and represented in FIG. 3. The cooperativity ratios were calculated by means of the abovementioned formula. The sequences (DR1)2 17 and (DR1)2 31 bind as many dimeric and tetrameric forms. The cooperativity ratios are 9 and 12.6 respectively. […] The dimeric form forms only 20% of the total binding, whereas the tetrameric form forms 80% of the total binding. The cooperativity ratio is 34 +/−11.

[6] = test system: RSV (Rous Sarcoma Virus) promoter (comparator); test: Transcriptional activity of the synthetic promoter compared with the RSV viral promoter; format: cell-based
From the text: Finally, the levels of transcriptional activities reached by a viral promoter, such as the RSV (Rous Sarcoma Virus) promoter, and that of the synthetic promoter were compared. The basal transcriptional activity of the synthetic promoter is low, it is less than 5% of the activity of the RSV viral promoter.

## CN(CCOc1ccc(CC2SC(=O)NC2=O)cc1)c1ccccn1 (centres unmarked) [BRL 49653, rosiglitazone]
[1]
  plasma concentration: about 15 μg/ml

## C[C@@H]1C[C@H]2[C@@H]3CCC4=CC(=O)C=C[C@]4(C)[C@@]3(F)[C@@H](O)C[C@]2(C)[C@@]1(O)C(=O)CO [Dexamethasone, dexamethasone]
[2]; dexamethasone alone, concentration not given
  activation of transcription of the synthetic promoter: about 6 fold

## CCCCC/C=C/C=C1/C(=O)C=C[C@@H]1C/C=C\CCCC(=O)O [PGJ2, 15 deoxy Δ^12-14 PGJ2]
[3]
  activation of the minimal promoter (−247/+20) of sPLA2-IIA: not activated
[3]; listed as prostaglandin J2
  activation of the minimal promoter (−247/+20) of sPLA2-IIA: no effect
[2]
  induction of the hybrid promoter, single inducer: 4 fold

## Cc1cccc(Nc2cc(Cl)nc(SCC(=O)O)n2)c1C [Wy-14643, pirinixic acid]
[3]
  activation of the minimal promoter (−247/+20) of sPLA2-IIA: no effect
[3]; listed as Wy 14643
  activation of the minimal promoter (−247/+20) of sPLA2-IIA: not activated
[2]; Wy-14643 200 μM
  activation of transcription of the hybrid construct: 3 to 4 fold

## CC(C)Cc1ccc(C(C)C(=O)O)cc1 (centres unmarked) [ibuprofen]
[2]
  activation of the construct (DR1)2 21-(−247/+20)-CAT: 17 fold

## COc1ccc2c(c1)c(CC(=O)O)c(C)n2C(=O)c1ccc(Cl)cc1 [indomethacin]
[2]
  activation of the construct (DR1)2 21-(−247/+20)-CAT: about fivefold

## (DR1)2 17: two DR1s separated center to center by 17 base pairs (DNA CAAAACTAGGTCAAAGGTCAAAACTAGGTCAAAGGTCA; radiolabeled by Klenow fill-in with 32P-dCTP, further chemistry not given here)
[4]
  cooperativity ratio (R): 7
[5]
  cooperativity ratio KdII/KdIV (R): 9

## (DR1)2 21: two DR1s separated center to center by 21 base pairs (DNA CAAAACTAGGTCAAAGGTCATCAAAACTAGGTCAAAGGTCA; radiolabeled by Klenow fill-in with 32P-dCTP, further chemistry not given here)
[4]
  cooperativity ratio (R): 11.2 and 11
[5]; PPARγ/RXR
  dimeric form, share of total binding: 20%
  tetrameric form, share of total binding: 80%
[5]
  cooperativity ratio KdII/KdIV (R): 34 +/−11

## (DR1)2 31: two DR1s separated center to center by 31 base pairs (DNA CAAAACTAGGTCAAAGGTCATGTCTTTAGGCCCAAAACTAGGTCAAAGGTCA; radiolabeled by Klenow fill-in with 32P-dCTP, further chemistry not given here)
[4]
  cooperativity ratio (R): 11.6 and 11
[5]
  cooperativity ratio KdII/KdIV (R): 12.6

## IL-1: pro-inflammatory cytokine interleukin-1
[3]; 247 bp fragment upstream of first exon of human PLA2s IIA gene, rabbit chondrocytes in primary culture
  stimulation of the activity of the CAT reporter gene: 6 to 8 times
[3]; IL-1 10 ng/ml in culture medium
  induction of the promoter of sPLA2-IIA: 6 fold
[2]
  induction of the hybrid promoter, single inducer: 4 fold

B1: synthetic promoter: PPAR response element (DR1)2 21 linked to fragment −247/+20 of the PLA2s IIA gene (nucleic acid)
DNA: GTACCAATTCGACAAAACTAGGTCAAAGGTCATCAAAACTAGGTCAAAGGTCAAATTCGAACGCGGCAAAACTGCCTGAAATGTGTTTTGGCATCAGCTACTGACACGTAAGGTTTCCCAATCCTCAACTCTGTCCTGCCAGCTGATGAGGGGAAGGAAAGGGATTACCTAGGGGTATGGGCGACCAATCCTGAGTCCACCAACTGACCACGCCCATCCCCAGCCTTGTGCCTCACCTACCCCCAACCTCCCAGAGGGAGCAGCTATTTAAGGGGAGCAGGAGTGCAGAACAAACAAGACGGCCTGGGGATACAACTCTGGAGTCCTCTGAG
modifications: PPRE/PLA2s hybrid promoter
notes: PPAR response element (DR1)2 21 linked to fragment −247/+20 of the PLA2s IIA gene
[6]; after induction with the different effectors (results not shown)
  transcriptional activity relative to RSV after induction: 40%
[6]; not induced
  basal transcriptional activity, relative to the RSV viral promoter: less than 5%
